What follows are molecules tested against BCL2 (Homo sapiens (Human), UniProt P10415) (assay: Molecular level activity test of anti-apoptotic protein BCL2 (HTRF, binding to Bim peptide)). Details: HTRF, binding of BCL2 to Bim peptide; read-out: BCL2 nM (inhibitory activity, IC50).
In short: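 Signal comes from proximity of anti-His-labelled BCL2 and streptavidin-XL665-bound biotin-BIM peptide. Test compounds, added in 2% DMSO, were preincubated with protein and peptide for one hour; detection reagents then incubated four hours at room temperature before reading.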

BCL2, sequence (P10415 whole entry): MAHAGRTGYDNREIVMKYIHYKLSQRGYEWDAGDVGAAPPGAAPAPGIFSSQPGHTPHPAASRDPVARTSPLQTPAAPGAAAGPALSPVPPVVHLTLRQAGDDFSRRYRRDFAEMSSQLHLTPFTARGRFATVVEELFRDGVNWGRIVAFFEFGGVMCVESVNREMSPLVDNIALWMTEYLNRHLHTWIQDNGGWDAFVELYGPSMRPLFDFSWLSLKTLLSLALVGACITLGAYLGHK

IC50, < 10 nM:
COc1ccc(CN2CCN(C3CC4(CCN(c5cc(Oc6cnc7[nH]ccc7c6)c(C(=O)NS(=O)(=O)c6cc([N+](=O)[O-])c(NCC7(F)CCOCC7)c7c6OCO7)cn5)CC4)C3)[C@H](c3ccccc3C(C)C)C2)cc1 [compound 132, (R)-4-((1H-pyrrolo[2,3-b]pyrid-5-yl)oxy)-N-((7-(((4-fluorotetrahydro-2H-pyran-4-yl)methyl)amino)-6-nitrobenzo[d][1,3]dioxocyclopent-4-yl)sulfonyl)-6-(2-(2-(2-isopropylphenyl)-4-(4-methoxybenzyl)piperazin-1-yl)-7-azaspiro[3.5]non-7-yl) nicotinamide]
CC(C)c1ccccc1[C@@H]1CCCN1C1CC2(CCN(c3cc(Oc4cnc5[nH]ccc5c4)c(C(=O)NS(=O)(=O)c4cc([N+](=O)[O-])c(NCC5(F)CCN(C6CCOCC6)CC5)c5[nH]cnc45)cc3F)CC2)C1 [compound 024, (S)-2-((1H-pyrrolo[2,3-b]pyrid-5-yl)oxy)-5-fluoro-N-((7-(((4-fluoro-1-(tetrahydro-2H-pyran-4-yl)piperid-4-yl)methyl)amino)-6-nitro-1H-benzo[d]imidazol-4-yl)sulfonyl)-4-(2-(2-(2-isopropylphenyl)pyrrolidin-1-yl)-7-azaspiro[3.5]non-7-yl)benzamide]
COc1ccc(CN2CCN(C3CC4(CCN(c5cc(Oc6cnc7[nH]ccc7c6)c(C(=O)NS(=O)(=O)c6cc([N+](=O)[O-])c(NCC7(F)CCOCC7)c7n[nH]c(=O)cc67)cc5F)CC4)C3)[C@H](c3ccccc3C(C)C)C2)cc1 [compound 141, (R)-2-((1H-pyrrolo[2,3-b]pyrid-5-yl)oxy)-5-fluoro-N-((8-(((4-fluorotetrahydro-2H-pyran-4-yl)methyl)amino)-7-nitro-3-oxo-2,3-misoline-5-yl)sulfonyl)-4-(2-(2-(2-isopropylphenyl)-4-(4-methoxybenzyl)piperazin-1-yl)-7-azaspiro[3.5]non-7-yl)benzamide]
CC(C)c1ccccc1[C@@H]1CN(Cc2c(F)cccc2F)CCN1C1CC2(CCN(c3ccc(C(=O)NS(=O)(=O)c4cc([N+](=O)[O-])c(NCC5(F)CCOCC5)c5c4OCO5)c(Oc4cnc5[nH]ccc5c4)c3)CC2)C1 [compound 170, (R)-2-((1H-pyrrolo[2,3-b]pyrid-5-yl)oxy)-4-(2-(4-(2,6-difluorobenzyl)-2-(2-isopropylphenyl)piperazin-1-yl)-7-azaspiro[3.5]non-7-yl)-N-((7-(((4-fluorotetrahydro-2H-pyran-4-yl)methyl)amino)-6-nitrobenzo[d][1,3]dioxocyclopent-4-yl)sulfonyl)benzamide]
COc1ccc(CN2CCN(C3CC4(CCN(c5ccc(C(=O)NS(=O)(=O)c6cc([N+](=O)[O-])c(NC[C@H]7CC[C@](C)(O)CC7)c7c6OCCO7)c(Oc6cnc7[nH]ccc7c6)c5)CC4)C3)[C@H](c3ccccc3C(C)C)C2)cc1 [compound 182, 2-((1H-pyrrolo[2,3-b]pyrid-5-yl)oxy)-N-((8-((((1r, 4r)-4-hydroxy-4-methylcyclohexyl)methyl)amino)-7-nitro-2,3-dihydrobenzo[b][1,4]dioxan-5-yl)sulfonyl)-4-(2-((R)-2-(2-isopropylphenyl)-4-(4-methoxybenzyl)piperazin-1-yl)-7-azaspiro[3.5]non-7-yl)benzamide]
CC(C)c1ccccc1[C@@H]1CCCN1C1CC2(CCN(c3cc(Oc4cnc5[nH]ccc5c4)c(C(=O)NS(=O)(=O)c4cc([N+](=O)[O-])c(NC[C@H]5CC[C@](C)(O)CC5)c5c4ncn5C)cn3)CC2)C1 [compound 035, 4-((1H-pyrrolo[2,3-b]pyrid-5-yl)oxy)-N-((7-((((1r,4r)-4-hydroxy-4-methylcyclohexyl)methyl)amino)-1-methyl-6-nitro-1H-benzo[d]imidazol-4-yl)sulfonyl)-6-(2-((S)-2-(2-isopropylphenyl)pyrrolidin-1-yl)-7-azaspiro[3.5]non-7-yl) nicotinamide]
CC(C)c1ccccc1[C@@H]1CCCN1C1CC2(CCN(c3ccc(C(=O)NS(=O)(=O)c4cc([N+](=O)[O-])c(NC[C@H]5COCCO5)c5c4OCO5)c(Oc4cnc5[nH]ccc5c4)c3)CC2)C1 [compound 161, N-((7-((((S)-1,4-dioxan-2-yl)methyl)amino)-6-nitrobenzo[d][1,3]dioxocyclopent-4-yl)sulfonyl)-2-((1H-pyrrolo[2,3-b]pyrid-5-yl)oxy)-4-(2-((S)-2-(2-isopropylphenyl)pyrrolidin-1-yl)-7-azaspiro[3.5]non-7-yl)benzamide]
CC(C)c1ccccc1[C@@H]1CN(Cc2ccc(C3CC3)cc2)CCN1C1CC2(CCN(c3ccc(C(=O)NS(=O)(=O)c4cc([N+](=O)[O-])c(NCC5(F)CCOCC5)c5c4OCO5)c(Oc4cnc5[nH]ccc5c4)c3)CC2)C1 [compound 172, (R)-2-((1H-pyrrolo[2,3-b]pyrid-5-yl)oxy)-4-(2-(4-(4-cyclopropylbenzyl)-2-(2-isopropylphenyl)piperazin-1-yl)-7-azaspiro[3.5]non-7-yl)-N-((7-(((4-fluorotetrahydro-2H-pyran-4-yl)methyl)amino)-6-nitrobenzo[d][1,3]dioxocyclopent-4-yl)sulfonyl)benzamide]
CC(C)c1ccccc1[C@@H]1CCCN1C1CC2(CCN(c3cc(Oc4cnc5[nH]ccc5c4)c(C(=O)NS(=O)(=O)c4cc([N+](=O)[O-])c(NC[C@H]5CC[C@](C)(O)CC5)c5c4CCO5)cc3F)CC2)C1 [compound 100, 2-((1H-pyrrolo[2,3-b]pyrid-5-yl)oxy)-5-fluoro-N-((7-((((1r, 4r)-4-hydroxy-4-methylcyclohexyl)methyl)amino)-6-nitro-2,3-dihydrobenzofuran-4-yl)sulfonyl)-4-(2-((S)-2-(2-isopropylphenyl)pyrrolidin-1-yl)-7-azaspiro[3.5]non-7-yl)benzamide]
COc1ccc(CN2CCN(C3CC4(CCN(c5ccc(C(=O)NS(=O)(=O)c6cc([N+](=O)[O-])c(NCC7(F)CCOCC7)c7c6OCO7)c(Oc6cnc7[nH]ccc7c6)c5)CC4)C3)[C@H](c3ccccc3C(C)C)C2)cn1 [compound 166, (R)-2-((1H-pyrrolo[2,3-b]pyrid-5-yl)oxy)-N-((7-(((4-fluorotetrahydro-2H-pyran-4-yl)methyl)amino)-6-nitrobenzo[d][1,3]dioxocyclopent-4-yl)sulfonyl)-4-(2-(2-(2-isopropylphenyl)-4-((6-methoxypyrid-3-yl)methyl)piperazin-1-yl)-7-azaspiro[3.5]non-7-yl)benzamide]
CC(C)c1ccccc1[C@@H]1CCCN1C1CC2(CCN(c3cc(Oc4cnc5[nH]cc(F)c5c4)c(C(=O)NS(=O)(=O)c4cc([N+](=O)[O-])c(NC[C@H]5CC[C@](C)(O)CC5)c5[nH]cnc45)cn3)CC2)C1 [compound 037, 4-((3-fluoro-1H-pyrrolo[2,3-b]pyrid-5-yl)oxy)-N-((7-((((1r,4r)-4-hydroxy-4-methylcyclohexyl)methyl)amino)-6-nitro-1H-benzo[d]imidazol-4-yl)sulfonyl)-6-(2-((S)-2-(2-isopropylphenyl)pyrrolidin-1-yl)-7-azaspiro[3.5]non-7-yl) nicotinamide]
COc1ccc(CN2CCN(C3CC4(CCN(c5cc(Oc6cnc7[nH]ccc7c6)c(C(=O)NS(=O)(=O)c6cc([N+](=O)[O-])c(NCC7(F)CCOCC7)c7c6OCO7)cc5F)CC4)C3)[C@H](c3ccccc3C(C)C)C2)cn1 [compound 126]
(S)-2-((1H-pyrrolo[2,3-b]pyrid-5-yl)oxy)-N-(7-(((4-fluorotetrahydro-2H-pyran-4-yl)methyl)amino)-6-nitro-1H-benzo[d]imidazol-4-yl)sulfonyl)-4-(2-(2-(2-isopropylphenyl)pyrrolidin-1-yl)-7-azaspiro[3.5]non-7-yl)benzamide [compound 005]
CC(C)c1ccccc1[C@@H]1CCCN1C1CC2(CCN(c3ccc(C(=O)NS(=O)(=O)c4cc([N+](=O)[O-])c(NC[C@H]5CC[C@](C)(O)CC5)c5c4OCO5)c(Oc4cnc5[nH]ccc5c4)c3)CC2)C1 [compound 158, 2-((1H-pyrrolo[2,3-b]pyrid-5-yl)oxy)-N-((7-((((1r, 4r)-4-hydroxy-4-methylcyclohexyl)methyl)amino)-6-nitrobenzo[d][1,3]dioxocyclopent-4-yl)sulfonyl)-4-(2-((S)-2-(2-isopropylphenyl)pyrrolidin-1-yl)-7-azaspiro[3.5]non-7-yl)benzamide]
CC(C)c1ccccc1[C@@H]1CCCN1C1CC2(CCN(c3cc(N4CCOc5nc6[nH]ccc6cc54)c(C(=O)NS(=O)(=O)c4cc([N+](=O)[O-])c(NC[C@H]5CC[C@](C)(O)CC5)c5[nH]cnc45)cn3)CC2)C1 [compound 081, 4-(2,3-dihydropyrrolo[3′,2′:5,6]pyridino[2,3-b][1,4]oxazin-1 (6H)-yl)-N-((7-((((1r,4r)-4-hydroxy-4-methylcyclohexyl)methyl)amino)-6-nitro-1H-benzo[d]imidazol-4-yl)sulfonyl)-6-(2-((S)-2-(2-isopropylphenyl)pyrrolidin-1-yl)-7-azaspiro[3.5]non-7-yl) nicotinamide]
CC(C)c1ccccc1[C@@H]1CN(Cc2ccc(C#N)cc2)CCN1C1CC2(CCN(c3cc(Oc4cnc5[nH]ccc5c4)c(C(=O)NS(=O)(=O)c4ccc(NC[C@H]5CC[C@](C)(O)CC5)c([N+](=O)[O-])c4)cc3F)CC2)C1 [compound 214, 2-((1H-pyrrolo[2,3-b]pyrid-5-yl)oxy)-4-(2-((R)-4-(4-cyanobenzyl)-2-(2-isopropylphenyl)piperazin-1-yl)-7-azaspiro[3.5]non-7-yl)-5-fluoro-N-((4-((((1r, 4r)-4-hydroxy-4-methylcyclohexyl)methyl)amino)-3-nitrophenyl)sulfonyl)benzamide]
